# Measurements: PMC11091220, “Metabolism-driven in vitro/in vivo disconnect of an oral ERɑ VHL-PROTAC” (Communications Biology, 2024)
# Changes are numbered by the printed parent chain. Several values for one entry are separate records, joined by “and”; a condition that tells them apart may be missing. Equal entries are not always repeated. Where two headings read alike, the source gives them in different places.
# Experiments:
# [1] = Chromatographic LogD; type: physicochemical; settings: Waters Acquity BEH C18 column, pH 7.4
# Description: An HPLC with UV detection using diode array detection over a wavelength range of 210-320 nm and confirmation by electrospray mass spectrometry (pos/neg ionisation) is used to determine the chromatographic LogD of compounds. Test compounds, calibrants, and QC samples are prepared as 10 mM stocks in DMSO and further diluted to a final concentration of 0.6 mM in DMSO. […] The chromatographic system is calibrated using standards with known literature values of octanol-water partition coefficient at pH 7.4 (logD7.4) and retention factors, k’, of calibrants, QCs, and samples calculated using equation: k’=(rt-t0)/t0.
# [2] = Total plasma exposure of AZ’6421 and metabolite 8 in rat; type: in vivo; settings: for Total plasma: rat, individual animals, analyte = label
# Description: Fig. 8 Evidence of ER agonism of AZ’6421 and compound 8 in vitro and in vivo. a 100 nM compound or 10 nM estradiol (E2) were incubated with Ishikawa cells for 48 h and lysates measured for PR expression by western blot. b Normalised rat uterine weight shown as % change from respective vehicle control after 4 days dosing. c Representative H&E stained images taken from sections of uterine horn after 4 days of dosing. d Total plasma exposure of AZ’6421 and its metabolite 8 following dosing of 100 mg/kg BID or 30 mg/kg BID AZ’6421. Plasma samples were taken 4 hr after the 4th dose, at the same time as the uterus was weighed and sectioned for H&E staining.
# Each plasma sample ([…]) was prepared using an appropriate dilution factor, and compared against an 11-point standard calibration curve (1-10000 nM) prepared in DMSO and spiked into blank plasma. Acetonitrile ([…]) was added with the internal standard, followed by centrifugation at 3000 rpm for 10 minutes. The supernatant ([…]) was then diluted in […] acetonitrile:water (75:25) and analyzed via UPLC-MS/MS.
# [3] = molecular target: T1, ERα (Homo sapiens, UniProt P03372, D538G); test: CTC174 ex vivo studies, ERα by western blot; type: cell-based; settings: for ERα % of DMSO control: CTC174 ex vivo; for remaining activity at 1 µM: read-out: ERα levels, % of control
# T1 construct: from tissue; host or cells: CTC174 PDX tumours grown in female NSG mice; for the ex vivo work, single cells disaggregated from these tumours
# T1 sequence (P03372 1-595 D538G): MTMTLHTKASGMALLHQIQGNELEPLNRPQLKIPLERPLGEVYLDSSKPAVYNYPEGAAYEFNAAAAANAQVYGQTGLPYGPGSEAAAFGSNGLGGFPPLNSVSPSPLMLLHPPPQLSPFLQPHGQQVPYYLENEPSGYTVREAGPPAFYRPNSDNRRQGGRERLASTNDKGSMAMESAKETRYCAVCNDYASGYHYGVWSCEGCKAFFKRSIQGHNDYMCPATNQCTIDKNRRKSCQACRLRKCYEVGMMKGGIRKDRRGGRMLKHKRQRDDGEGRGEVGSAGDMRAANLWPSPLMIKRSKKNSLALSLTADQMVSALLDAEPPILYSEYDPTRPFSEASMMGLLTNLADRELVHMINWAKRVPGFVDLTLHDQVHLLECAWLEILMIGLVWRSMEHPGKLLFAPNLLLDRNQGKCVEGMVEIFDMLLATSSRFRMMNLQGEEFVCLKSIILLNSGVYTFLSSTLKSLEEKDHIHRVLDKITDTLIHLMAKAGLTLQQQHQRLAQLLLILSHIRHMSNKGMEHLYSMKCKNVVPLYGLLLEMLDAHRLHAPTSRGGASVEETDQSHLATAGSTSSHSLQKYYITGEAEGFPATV
# Description: CTC174 tumours were collected from donor mice, all fat, mouse tissue and necrotic areas removed and the resultant tumour placed in ice cold PBS and kept on ice. Using forceps, the tumour was then minced into small pieces (1-2 mm). Once minced, the tissue was colleced, placed into a gentlMACS C tube with 4.7 mL DMEM/F12 and enzymes H, R and A (Miltenyi Tumour Dissociation Kit), and run on the gentleMACS Octo Dissociator (Program 37C_h_TDK_2). After dissociation, the cell suspension was passed through a […] filter, red blood cell lysis performed using […] lysis buffer, and the resultant suspension centrifuged, resuspended in RPMI (containing 10% charcoal-stripped FCS) and 1x10^6 cell added to each well of a 6 well plate. DMSO control, AZ’3372 or AZ’6421 were added to well at a range of concentrations, left to incubate for 24 hours (37 °C, 5% CO2) and then samples prepared for western blot and ERα levels determined as described above.
# [4] = molecular target: T2, ERα (Homo sapiens, UniProt P03372); test: ERα high throughput imaging degradation assay in MCF7 cells; type: cell-based; settings: for Dmax: MCF7; for DC50: MCF7 cells, 20 to 24 hours; for ERa degradation (% vs fulv): Figure 6e, individual replicates
# T2 construct: endogenous in cells; host or cells: MCF7 (also MCF7 engineered to express Cas9)
# T2 sequence (P03372 1-595): T1 sequence (P03372 1-595 D538G) with G538D
# Description: Cells were fixed, permeabilised and stained with anti-ERα (rabbit clone SP1, Thermo) and anti-PR (mouse clone PgR 636, Dako) antibodies followed by secondary AlexaFluor 594 goat anti-rabbit and AlexaFluor 488 goat anti-mouse IgG antibodies. Imaging was using the Thermo Cellinsight scanner and average fluorescence intensity was analysed using Genedata.
# [5] = reverse-phase HPLC, read-out: chrom LogD
# [6] = reversed-phase HPLC, Table 2 source data, read-out: ChromLogD
# [7] = AZ'6421 dosed 30 mg/kg BID, 30 mg/kg
# [8] = AZ'6421 dosed 100 mg/kg BID, 100 mg/kg
structure (smiles),measurement,setting,value
Cc1ncsc1-c1ccc(CNC(=O)[C@@H]2C[C@@H](O)CN2C(=O)[C@@H](NC(=O)COCCCOCCCOc2cc(F)c([C@@H]3c4[nH]c5ccccc5c4C[C@@H](C)N3CC(C)(C)F)c(F)c2)C(C)(C)C)cc1 [Compound 5],chromatographic logD,[1]; [5],6.6 ± 0.4
same,chromatographic logD,[1]; [6],6.6
same,Total plasma,[2]; [7],0.1461 µM and 0.4943 µM and 0.0995 µM
same,Total plasma,[2]; [8],1.2846 µM and 2.0194 µM and 0.7522 µM and 0.1020 µM and 0.0689 µM
same,ERα % of DMSO control,"[3]; 1 nM, 24 hours",20.3%
same,ERα % of DMSO control,"[3]; 10 nM, 24 hours",12.0%
same,ERα % of DMSO control,"[3]; 30 nM, 24 hours",4.1%
same,ERα % of DMSO control,"[3]; 100 nM, 24 hours",4.2%
same,ERα % of DMSO control,"[3]; 300 nM, 24 hours",3.9%
same,ERα % of DMSO control,"[3]; 1000 nM, 24 hours",3.6%
same,ERα degradation,"[3]; CTC174 cells ex vivo, 24 hours, 10 nM and above",approximately 90%
same,remaining activity at 1 µM,[3],< 1%
same,Degradation vs fulvestrant,"[4]; Log M -7.0, listed as AZ'6421",101.3% and 100.0% and 100.9% and 100.7% and 96.8% and 100.1% and 99.4% and 99.7%
same,Dmax,"[4]; MCF7, read-out: ERα imaging Dmax, 0% vehicle control, 100% fulvestrant",100 ± 1%
same,DC50,[4],400 ± 100 pM
same,ERa degradation (% vs fulv),"[4]; log[compound] (M) -6.52, listed as AZ'6421",99.33% and 99.93% and 101.36% and 100.78% and 99.17% and 100.53% and 100.63% and 100.07% and 100.14% and 100.02%
same,ERa degradation (% vs fulv),"[4]; log[compound] (M) -7.00, listed as AZ'6421",101.32% and 100.02% and 100.91% and 100.71% and 100.90% and 96.75% and 100.07% and 99.39% and 100.12% and 99.67%
same,ERa degradation (% vs fulv),"[4]; log[compound] (M) -7.51, listed as AZ'6421",100.79% and 99.35% and 100.85% and 99.32% and 100.51% and 92.08% and 99.13% and 99.41% and 100.03% and 98.51%
same,ERa degradation (% vs fulv),"[4]; log[compound] (M) -9.00, listed as AZ'6421",93.78% and 65.44% and 89.78% and 70.27% and 72.25% and 75.33% and 76.06% and 75.57% and 73.41% and 66.07%
same,ERa degradation (% vs fulv),"[4]; log[compound] (M) -9.51, listed as AZ'6421",66.11% and 33.08% and 64.57% and 26.47% and 39.19% and 41.32% and 37.58% and 27.55% and 33.68% and 36.35%
same,ERa degradation (% vs fulv),"[4]; log[compound] (M) -9.90, listed as AZ'6421",38.07% and 5.08% and 43.62% and 16.97% and 24.51% and 17.96% and 13.58% and 13.52% and 2.56% and 2.84%
same,ERa degradation (% vs fulv),"[4]; log[compound] (M) -10.51, listed as AZ'6421",17.15% and -10.39% and 19.63% and 15.57% and 7.27% and 25.30% and 2.21% and -11.02% and -6.17% and -0.64%
same,ERa degradation (% vs fulv),"[4]; log[compound] (M) -10.90, listed as AZ'6421",22.79% and -6.31% and 31.83% and 8.09% and 2.16% and 2.02% and 3.46% and -2.88% and 3.42% and 4.13%
same,ERa degradation (% vs fulv),"[4]; log[compound] (M) -11.51, listed as AZ'6421",16.49% and -4.42% and 21.83% and -8.62% and -7.44% and -0.35% and 7.90% and 8.64% and 8.25% and -5.38%
same,ERa degradation (% vs fulv),"[4]; log[compound] (M) -12.51, listed as AZ'6421",22.96% and -5.76% and 24.26% and -2.82% and -3.01% and -3.46% and -11.46% and 15.61% and -2.65% and -10.83%
C[C@@H]1Cc2c([nH]c3ccccc23)[C@@H](c2c(F)cc(OCCC(=O)O)cc2F)N1CC(C)(C)F [Compound 8],chromatographic logD,[1]; [5],3.8
same,chromatographic logD,[1]; [6],3.8
same,level in rat plasma,[2]; after dosing AZ’6421,found at sizable levels in rat plasma
same,Total plasma,[2]; [7],1.0069 µM and 2.5325 µM and 3.6803 µM and 2.8962 µM and 0.8884 µM
same,Total plasma,[2]; [8],7.8737 µM and 9.6410 µM and 6.9833 µM and 3.4205 µM and 4.6683 µM
same,remaining activity at 1 µM,"[3]; 1000 nM, CTC174 cells ex vivo (Fig. 6f)",42%
same,Dmax,"[4]; 0% vehicle control, 100% fulvestrant, read-out: ERα imaging Dmax",86 ± 4%
same,DC50,[4],500 ± 100 pM
same,ERa degradation (% vs fulv),[4]; log[compound] (M) -6.52,86.16% and 85.41% and 90.14% and 89.92% and 86.68% and 83.66% and 85.58% and 80.53%
same,ERa degradation (% vs fulv),[4]; log[compound] (M) -7.00,65.22% and 84.95% and 90.84% and 90.97% and 84.15% and 85.62% and 84.72% and 83.12%
same,ERa degradation (% vs fulv),[4]; log[compound] (M) -7.51,87.11% and 87.02% and 90.35% and 91.70% and 85.51% and 86.15% and 84.84% and 84.81%
same,ERa degradation (% vs fulv),[4]; log[compound] (M) -7.90,81.45% and 85.48% and 90.59% and 86.35% and 80.42% and 79.30% and 79.15% and 77.88%
same,ERa degradation (% vs fulv),[4]; log[compound] (M) -8.52,80.28% and 76.86% and 80.57% and 81.16% and 72.31% and 67.13% and 75.58% and 76.43%
same,ERa degradation (% vs fulv),[4]; log[compound] (M) -9.00,64.37% and 61.04% and 63.02% and 63.61% and 52.14% and 45.07% and 64.32% and 69.99%
same,ERa degradation (% vs fulv),[4]; log[compound] (M) -9.51,21.08% and 35.46% and 24.68% and 25.02% and 22.82% and 21.75% and 38.96% and 36.82%
same,ERa degradation (% vs fulv),[4]; log[compound] (M) -9.90,20.56% and 6.22% and 6.66% and 18.09% and -5.08% and 24.12% and -6.47% and -3.82%
same,ERa degradation (% vs fulv),[4]; log[compound] (M) -10.51,-1.75% and -2.12% and 13.25% and 9.62% and 10.07% and 23.66% and -5.98% and -1.61%
same,ERa degradation (% vs fulv),[4]; log[compound] (M) -10.90,-0.94% and -3.29% and -5.11% and -4.81% and 28.56% and 0.42% and 1.50% and -12.94%
same,ERa degradation (% vs fulv),[4]; log[compound] (M) -11.51,5.64% and 1.40% and -9.86% and -6.66% and -0.74% and -8.00% and -7.44% and -13.98%
same,ERa degradation (% vs fulv),[4]; log[compound] (M) -12.51,-13.89% and 2.41% and -4.59% and -2.38% and -17.18% and -3.64% and -7.40% and -8.33%
